Molecular target: T1, human LPA1 (Homo sapiens, UniProt Q92633)
T1 construct: expressed in transfected cells; host or cells: Chinese hamster ovary (CHO) cells
Test: LPA1 functional antagonist assay (LPA-induced calcium flux)
Assay type: cell-based
Conditions: CHO cells overexpressing human LPA1; inhibition of calcium flux induced by 10 nM LPA; read-out: hLPA1 IC50
Protocol: The effectiveness of compounds of the present invention as LPA1 inhibitors can be determined in an LPA1 functional antagonist assay as follows:
Chinese hamster ovary cells overexpressing human LPA1 were plated overnight (15,000 cells/well) in poly-D-lysine coated 384-well microplates (Greiner bio-one, Cat #781946) in DMEM/F12 medium (Gibco, Cat #11039). Following overnight culture, cells were loaded with calcium indicator dye (AAT Bioquest Inc, Cat #34601) for 30 minutes at 37° C. The cells were then equilibrated to room temperature for 30 minutes before the assay. Test compounds solubilized in DMSO were transferred to 384 well non-binding surface plates (Corning, Cat #3575) using the Labcyte Echo acoustic dispense and diluted with assay buffer [1×HBSS with calcium/magnesium (Gibco Cat #14025-092), 20 mM HEPES (Gibco Cat #15630-080) and 0.1% fatty acid free BSA (Sigma Cat #A9205)] to a final concentration of 0.5% DMSO. Diluted compounds were added to the cells by FDSS6000 (Hamamatsu) at final concentrations ranging from 0.08 nM to 5 μM. and were then incubated for 20 min at room temperature at which time LPA (Avanti Polar Lipids Cat #857130C) was added at final concentrations of 10 nM to stimulate the cells. The compound IC50 value was defined as the concentration of test compound which inhibited 50% of the calcium flux induced by LPA alone. IC50 values were determined by fitting data to a 4-parameter logistic equation (GraphPad Prism, San Diego CA).

T1 sequence (Q92633 whole entry): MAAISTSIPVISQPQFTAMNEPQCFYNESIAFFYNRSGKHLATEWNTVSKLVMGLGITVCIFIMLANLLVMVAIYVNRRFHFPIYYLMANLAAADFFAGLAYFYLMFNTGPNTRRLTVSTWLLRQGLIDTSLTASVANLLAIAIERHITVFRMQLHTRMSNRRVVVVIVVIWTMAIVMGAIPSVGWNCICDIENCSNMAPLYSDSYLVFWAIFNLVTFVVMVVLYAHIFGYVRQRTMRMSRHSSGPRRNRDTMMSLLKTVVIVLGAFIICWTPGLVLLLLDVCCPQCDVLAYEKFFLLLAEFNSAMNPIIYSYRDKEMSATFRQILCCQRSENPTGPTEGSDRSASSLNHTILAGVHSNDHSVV

| SMILES | IC50 [nM] |
| --- | --- |
| Cc1nc(-c2onc(C)c2COC(=O)N(C)C2CCCC2)ccc1O[C@H]1CC[C@H](C(=O)O)C1 (racemic) [Example 77, (±)-trans-3-({6-[4-({[cyclopentyl(methyl)carbamoyl]oxy}methyl)-3-methyl-1,2-oxazol-5-yl]-2-methyl-pyridin-3-yl}oxy)cyclopentane-1-carboxylic acid] | 66 |
| Cc1nc(-c2nnn(C)c2CNc2noc(CCC3CCC3)n2)ccc1O[C@H]1CC[C@H](CC(=O)O)C1 (racemic) [Example 80, (±)-2-(3-((6-(5-(((5-(2-cyclobutylethyl)-1,2,4-oxadiazol-3-yl)amino)methyl)-1-methyl-1H-1,2,3-triazol-4-yl)-2-methylpyridin-3-yl)oxy)cyclopentyl)acetic Acid] | 108 |
| Cc1nc(-c2nnn(C)c2NC(=O)OCC(C)C)ccc1O[C@H]1CC[C@H](CC(=O)O)C1 (racemic) [Example 81, (±)-Trans-2-(3-((6-(5-((isobutoxycarbonyl)amino)-1-methyl-1H-1,2,3-triazol-4-yl)-2-methylpyridin-3-yl)oxy)cyclopentyl)acetic Acid] | 613 |
| Cc1nc(-c2nnn(C)c2CNc2noc(CC3CC3)n2)ccc1O[C@H]1CC[C@H](CC(=O)O)C1 (racemic) [Example 82, (±)-trans-2-[3-({6-[5-({[5-(cyclopropyl-methyl)-1,2,4-oxadiazol-3-yl]amino}methyl)-1-methyl-1H-1,2,3-triazol-4-yl]-2-methylpyridin-3-yl}oxy)cyclo-pentyl]acetic acid] | 572 |
| Cc1nc(-c2nnn(C)c2NC(=O)OCC2CC2)ccc1O[C@H]1CC[C@H](CC(=O)O)C1 (racemic) [Example 83, (±)-trans-2-[3-{[6-(5-{(cyclopropylmethoxy)carbonyl]amino}-1-methyl-1H-1,2,3-triazol-4-yl)-2-methyl-pyridin-3-yl]oxy}cyclopentyl]acetic acid] | 1230 |
| Cc1nc(-c2onc(C)c2COC(=O)N(C)C2CCCC2)ccc1O[C@H]1CCC[C@H]1CC(=O)O (racemic) [Example 85, (±)-Cis-2-(2-((6-(4-(((cyclopentyl(methyl)carbamoyl)oxy)methyl)-3-methylisoxazol-5-yl)-2-methylpyridin-3-yl)oxy)cyclopentyl)acetic Acid] | 29 |
| CCCCN(C)C(=O)OCc1c(-c2ccc(O[C@@H]3CC[C@@H](CC(=O)O)C3)c(CC)n2)nnn1C (racemic) [Example 86, (±)-2-((trans)-3-((6-(5-(((butyl(methyl)carbamoyl)oxy)methyl)-1-methyl-1H-1,2,3-triazol-4-yl)-2-ethylpyridin-3-yl)oxy)cyclopentyl)acetic acid] | 48 |
| CCc1nc(-c2nnn(C)c2COC(=O)N(C)CC2CCC2)ccc1O[C@@H]1CC[C@@H](CC(=O)O)C1 (racemic) [Example 87, (±)-2-((trans)-3-((6-(5-((((cyclo-butylmethyl)(methyl)carba-moyl)oxy)methyl)-1-methyl-1H-1,2,3-triazol-4-yl)-2-ethyl-pyridin-3-yl)oxy)cyclopentyl)acetic acid] | 46 |
| CCCN(C)C(=O)OCc1c(-c2ccc(O[C@H]3CCC[C@H]3CC(=O)O)c(C)n2)nnn1C (racemic) [Example 88, (±)-cis-2-(2-((2-methyl-6-(1-methyl-5-(((methyl(propyl)carbamoyl)oxy)methyl)-1H-1,2,3-triazol-4-yl)pyridin-3-yl)oxy)cyclopentyl)acetic acid] | 425 |
| Cc1nc(-c2nnn(C)c2COC(=O)N(C)CC2CC2)ccc1O[C@H]1CCC[C@H]1CC(=O)O (racemic) [Example 89, (±)-cis-2-(2-((6-(5-((((cyclopropyl-methyl)(methyl)carbamoyl)oxy)methyl)-1-methyl-1H-1,2,3-triazol-4-yl)-2-methylpyridin-3-yl)oxy)cyclopentyl)acetic acid] | 291 |
| CN(C(=O)OCc1c(-c2ccc(O[C@H]3CC[C@@H](C(=O)O)C3)cc2)nnn1C)C1CCCC1 (relative stereo) [Example 11, Cis-3-(4-(5-(((cyclopentyl(methyl)carbamoyl)oxy)methyl)-1-methyl-1H-1,2,3-triazol-4-yl)phenoxy)cyclo-pentane-1-carboxylic acid] | 386 |
| CC(C)CCN(C)C(=O)OCc1c(-c2ccc(O[C@H]3CC[C@@H](C(=O)O)C3)cc2)nnn1C (relative stereo) [Example 12, Cis-3-(4-(5-(((isopentyl(methyl)carbamoyl)oxy)methyl)-1-methyl-1H-1,2,3-triazol-4-yl)phenoxy)cyclo-pentane-1-carboxylic acid] | 448 |
| Cc1noc(-c2ccc(OC[C@@H]3CC[C@H](C(=O)O)C3)cn2)c1CNc1nccc(-c2ccccn2)n1 (relative stereo) [Example 33, cis-3-(((6-(3-methyl-4-(((4-(pyridin-2-yl)pyrimidin-2-yl)amino)methyl)isoxazol-5-yl)pyridin-3-yl)oxy)methyl)cyclopentane-1-carboxylic acid] | 40 |
| Cc1noc(-c2ccc(O[C@@H]3CC[C@@H](C(=O)O)C3)cn2)c1CNc1nccc(-c2ccccn2)n1 (relative stereo) [Example 34, trans-3-((6-(3-methyl-4-(((4-(pyridin-2-yl)pyrimidin-2-yl)amino)methyl)isoxazol-5-yl)pyridin-3-yl)oxy)cyclo-pentane-1-carboxylic acid] | 247 |
| Cc1nc(-c2onc(C)c2CNc2nccc(-c3ccccn3)n2)ccc1OC[C@@H]1CC[C@H](C(=O)O)C1 (relative stereo) [Example 35, cis-3-(((2-methyl-6-(3-methyl-4-(((4-(pyridin-2-yl)pyrimidin-2-yl)amino)methyl)isoxazol-5-yl)pyridin-3-yl)oxy)methyl)cyclopentane-1-carboxylic acid] | 9 |
| Cc1nc(-c2nnn(C)c2CNc2nccc(-c3ccccn3)n2)ccc1OC[C@@H]1CC[C@H](C(=O)O)C1 (relative stereo) [Example 36, cis-3-(((2-methyl-6-(1-methyl-5-(((4-(pyridin-2-yl)pyrimidin-2-yl)amino)methyl)-1H-1,2,3-triazol-4-yl)pyridin-3-yl)oxy)methyl)cyclopentane-1-carboxylic acid] | 119 |
| Cn1nnc(-c2ccc(OC[C@@H]3CC[C@H](C(=O)O)C3)cn2)c1CNc1nccc(-c2ccccn2)n1 (relative stereo) [Example 37, cis-3-(((6-(1-methyl-5-(((4-(pyridin-2-yl)pyrimidin-2-yl)amino)methyl)-1H-1,2,3-triazol-4-yl)pyridin-3-yl)oxy)methyl)cyclopentane-1-carboxylic acid] | 172 |
| Cc1nc(-c2nnn(C)c2CNc2nccc(-c3ccccn3)n2)ccc1O[C@@H]1CC[C@@H](CC(=O)O)C1 (relative stereo) [Example 38, 2-(trans-3-((2-methyl-6-(1-methyl-5-(((4-(pyridin-2-yl)pyrimidin-2-yl)amino)methyl)-1H-1,2,3-triazol-4-yl)pyridin-3-yl)oxy)cyclopentyl)acetic acid] | 579 |
| Cc1nc(-c2nnn(C)c2CNc2nccc(C(C)C)n2)ccc1OC[C@@H]1CC[C@H](C(=O)O)C1 (relative stereo) [Example 39, cis-3-(((6-(5-(((4-isopropylpyrimidin-2-yl)amino)methyl)-1-methyl-1H-1,2,3-triazol-4-yl)-2-methylpyridin-3-yl)oxy)methyl)cyclopentane-1-carboxylic acid] | 164 |
| Cc1nc(-c2nnn(C)c2CNc2nccc(C(C)C)n2)ccc1O[C@@H]1CC[C@@H](CC(=O)O)C1 (relative stereo) [Example 40, 2-(trans-3-((6-(5-(((4-isopropylpyrimidin-2-yl)amino)methyl)-1-methyl-1H-1,2,3-triazol-4-yl)-2-methylpyridin-3-yl)oxy)cyclopentyl)acetic acid] | 92 |
| Cc1noc(-c2ccc(OC[C@@H]3CC[C@H](C(=O)O)C3)cc2)c1COC(=O)N(C)C1CCCC1 (relative stereo) [Example 41, Cis-3-((4-(4-(((cyclopentyl(methyl)carbamoyl)oxy)methyl)-3-methylisoxazol-5-yl)phenoxy)methyl)cyclopentane-1-carboxylic acid] | 325 |
| Cc1noc(-c2ccc(O[C@H]3CC[C@@H](C(=O)O)C3)cc2)c1NC(=O)O[C@H](C)c1ccccc1 (single isomer, unassigned) [Example 1] | 104 |
| Cc1noc(-c2ccc(O[C@H]3CC[C@H](C(=O)O)C3)cc2)c1NC(=O)O[C@H](C)c1ccccc1 (single isomer, unassigned) [Example 2] | 31 |
| CCCCN(C)C(=O)OCc1c(-c2ccc(O[C@H]3CC[C@H](CC(=O)O)C3)c(C)n2)nnn1C (single isomer, unassigned) [Example 4, (±)-Trans-2-(3-((6-(5-(((butyl(methyl)carbamoyl)oxy)methyl)-1-methyl-1H-1,2,3-triazol-4-yl)-2-methylpyridin-3-yl)oxy)cyclopentyl)acetic Acid] | 15 |

From US12209072B2, “Cyclopentyl acids as LPA antagonists” (BRISTOL-MYERS SQUIBB COMPANY, priority 2018, dated 2025)
